According to patent US20150024008A1, “Methods and Compositions Involving Induced Senescent Cells for Cancer Treatment” (THE UNIVERSITY OF CHICAGO, priority 2011, published 2015):

Columns and labels:
[1] = system: MCF7 Tet-On GFP-IBD human breast cancer cell line; experiment: GFP-53BP1 IRIF persistence, senescence and growth in MCF7 Tet-On GFP-IBD cells; assay type: cell-based; conditions: for persistence of GFP-53BP1 foci (IRIF) / accelerated senescence: combined with irradiation; for Senescence inducing condition 1 (compound concentration combined with IR) / Senescence inducing condition 2 (compound concentration combined with IR): MCF7 cell line
Description: To examine the effect of glucose metabolism on IRIF persistence in living cells, we exploited our previously described IRIF reporter consisting of GFP fused to the 53BP1 IRIF binding domain, expressed under tetracycline-inducible control. MCF7^Tet-On GFP-IBD cells were seeded at 3×10^5 per Fluorodish (World Precision Instruments, Inc.) in high-glucose (4.5 g/L) DMEM (Invitrogen) media supplemented with 10% Tet system-approved fetal bovine serum (Clontech) and 1 μg/mL doxycycline (Sigma). Next day media was exchanged for either high-glucose (4.5 g/L) or low-glucose (1 g/L) DMEM with 10% FBS and 1 μg/mL doxycycline. […] Cells were fixed at 3 h and 24 h for IRIF imaging and at day 5 for SA-βGal staining. Images were captured on Zeiss Axiovert 200M and a Hammatsu Orca ER FireWire digital monochrome (IRIF) or Zeiss Axiocam color digital camera (SA-βGal staining) controlled by OpenLab software.
To investigate what step of glycolysis is critical for improvement of DNA repair we used set of well established glycolysis inhibitors including glucose transporter Glut1 inhibitor, HXKi, GAPHi, PKi, LDHi. […] Given that elevated glycolysis predispose tumor cells for therapeutic resistance similar experiment has been performed on IR resistant PANC02 mouse pancreatic and U87 human glioma cell lines.

[2] = system: PANC02 mouse pancreatic cell line; experiment: GFP-53BP1 IRIF persistence in PANC02 Tet-On GFP-IBD cells; assay type: cell-based; conditions: 24 hours after 6 Gy
Description: (§1) PANC02^Tet-On GFP-IBD and U87^Tet-On GFP-IBD cell lines have been developed. Cells were seeded at 3×10^5 per Fluorodish in media supplemented with 1 μg/mL doxycycline following pretreatment for 1 h with glycolysis inhibitors before 6 Gy irradiation at 48 h. Phloretin Glut1i—Glucose transporter 1 inhibitor 100 μM (Sigma), HXi—Hexokinase inhibitorII 50 μM (Calbiochem), PKi—Pyruvate kinase inhibitor oxalate 50 μM (Sigma), LDHi—Lactate dehydrogenase inhibitor, oxamate 1 mM (Sigma).

[3] = system: U87 human glioma cell line; experiment: GFP-53BP1 IRIF persistence in U87 Tet-On GFP-IBD cells; assay type: cell-based; conditions: 24 hours after 6 Gy
Description: as §1

[4] = system: Nu61 head and neck squamous carcinoma xenografts; experiment: SA-βGal in Nu61 tumor xenografts; assay type: in vivo, mouse
Description: Head and neck squamous carcinomas cell line Nu61^Tet-On GFP-IBD with IRIF live imaging reporter have been developed. Female athymic nude mice underwent s.c. injection of 1×10^7 Nu61 Tet-OnGFP-IBD cells in 100 μL of PBS. Nine days later, mice received 25 mg/kg veliparib (ChemieTek) by oral gavage 48 hours before and 72 hours after a single dose of 6 Gy. […] Tumors were excised and frozen in liquid nitrogen for subsequent analysis. Frozen sections were analyzed for SA-βGal activity. The senescence-associated β-galactosidase (SA-βGal) assay was conducted as described before. Images were captured on a Zeiss Axiovert 200M and Zeiss Axiocam color digital camera controlled by OpenLab software with a ×20 objective.

[5] = chemotherapy agent, no irradiation stated

Molecule: O=C(CCCCCCC(=O)Nc1ccccc1)NO [SAHA, suberoylanilide hydroxamic acid]
- persistence of GFP-53BP1 foci (IRIF) [1]: enhance radiation induced persistence of GFP-53BP1 foci

Molecule: CN(C/C=C/C#CC(C)(C)C)Cc1cccc2ccccc12 [Terbinafine]
- Senescence inducing condition 1 (compound concentration combined with IR) ([1]; compound + 5 Gy): 2.5 μM + 5 Gy

Molecule: O=c1[nH]cc(F)c(=O)[nH]1 [Fluorouracil (5-FU), Fluorouracil]
- accelerated senescence [1]: accelerates senescence
- persistence of GFP-53BP1 foci (IRIF) [1]: enhances IRIF persistence

Molecule: COC(=O)C1=C(C)NC(C)=C(C(=O)OCC(C)C)C1c1ccccc1[N+](=O)[O-] (stereo not shown) [Nisoldipine]
- Senescence inducing condition 2 (compound concentration combined with IR) ([1]; compound + 6 Gy): 10 μM + 6 Gy

Molecule: O=C(O)C(Cl)Cl [dichloroacetic acid (DCA), dichloroacetic acid]
- accelerated senescence [1]: promoted accelerated senescence
- persistence of GFP-53BP1 foci (IRIF) [1]: induced persistence of GFP-53BP1 foci following irradiation

Molecule: O=C(CCc1ccc(O)cc1)c1c(O)cc(O)cc1O [phloretin]
- accelerated senescence [1]: promoted accelerated senescence
- persistence of GFP-53BP1 foci (IRIF) [1]: induced persistence of GFP-53BP1 foci following irradiation
- IRIF persistence [2]: markedly increased IRIF persistence
- IRIF persistence [3]: markedly increased IRIF persistence

Molecule: CN1CCC(=C2c3ccccc3CC(=O)c3sccc32)CC1 [Ketotifen]
- Senescence inducing condition 2 (compound concentration combined with IR) ([1]; compound + 5 Gy): 5 μM + 5 Gy

Molecule: CCCCCCCCCCCCCCCc1cccc(O)c1C(=O)O [anacardic acid]
- persistence of GFP-53BP1 foci (IRIF) [1]: enhance radiation induced persistence of GFP-53BP1 foci

Molecule: N[C@@H](C(=O)N[C@@H]1C(=O)N2C(C(=O)O)=C(Cl)CS[C@H]12)c1ccccc1 [Cefaclor]
- Senescence inducing condition 1 (compound concentration combined with IR) ([1]; compound + 6 Gy): 25 μM + 6 Gy

Molecule: Nc1nc2ccc(Cl)cc2c2nc(-c3ccco3)nn12 [CGS15943]
- Senescence inducing condition 2 (compound concentration combined with IR) ([1]; compound + 5 Gy): 0.05 μM + 5 Gy^

Molecule: O=C(O)C[C@H](O)C[C@H](O)/C=C/c1c(C2CC2)nc2ccccc2c1-c1ccc(F)cc1 [Pitavastatin]
- Senescence inducing condition 1 (compound concentration combined with IR) ([1]; compound + 6 Gy): 10 μM + 6 Gy

Molecule: c1cc(-c2cnn3cc(-c4ccc(OCCN5CCCCC5)cc4)cnc23)ccn1 [compound C]
- accelerated senescence [1]: promoted accelerated senescence
- persistence of GFP-53BP1 foci (IRIF) [1]: induced persistence of GFP-53BP1 foci after irradiation

Molecule: COc1ccc(C2CNC(=O)C2)cc1OC1CCCC1 (stereo not shown) [Rolipram]
- Senescence inducing condition 1 (compound concentration combined with IR) ([1]; compound + 6 Gy): 10 μM + 6 Gy

Molecule: oxalate [PKi]
- IRIF persistence [2]: markedly increased IRIF persistence
- IRIF persistence [3]: markedly increased IRIF persistence

Molecule: N.N.[Cl][Pt][Cl] [Cisplatin]
- persistence of GFP-53BP1 foci [1, 5]: induced persistence of GFP-53BP1 foci
- senescence and growth [1, 5]: accelerated senescence and growth suppression

Molecule: O=CC[C@@H](O)[C@H](O)[C@H](O)CO [2DG, 2-deoxy-D-glucose]
- persistence of GFP-53BP1 foci (IRIF) [1]: induced persistence of GFP-53BP1 foci
- SA-βGal induction in tumor ([4]; irradiated tumor treated with 2DG and veliparib): Strongest induction of SA-βGal
- SA-βGal positive cells in tumor ([4]; irradiation combined with 2DG): induced numerous cells stained positive for SA-βGal

Molecule: CC1=C(C(=O)O)N2C(=O)[C@@H](NC(=O)[C@H](N)c3ccccc3)[C@H]2SC1 [Cephalexin]
- Senescence inducing condition 2 (compound concentration combined with IR) ([1]; compound + 6 Gy): 10 μM + 6 Gy

Molecule: CC/C(=C(\c1ccccc1)c1ccc(OCCN(C)C)cc1)c1ccccc1 [Tamoxifen]
- accelerated senescence [1]: promoted accelerated senescence
- persistence of GFP-53BP1 foci (IRIF) [1]: induced persistence of GFP-53BP1 foci after irradiation

Molecule: O=c1n(CCCN2CCN(c3cccc(Cl)c3)CC2)nc2ccccn12 [Trazodone]
- Senescence inducing condition 2 (compound concentration combined with IR) ([1]; compound + 6 Gy): 10 μM + 6 Gy

Molecule: CN(C)CCC=C1c2ccccc2COc2ccccc21 [Doxepin]
- Senescence inducing condition 2 (compound concentration combined with IR) ([1]; compound + 5 Gy): 2.5 μM + 5 Gy

Molecule: O=c1c(O)c(-c2ccc(O)c(O)c2)oc2cc(O)cc(O)c12 [Quercetin]
- Senescence inducing condition 2 (compound concentration combined with IR) ([1]; compound + 5 Gy): 2.5 μM + 5 Gy

Molecule: CN(C)C(=N)N=C(N)N [metformin]
- accelerated senescence [1]: promoted accelerated senescence
- persistence of GFP-53BP1 foci (IRIF) [1]: induced persistence of GFP-53BP1 foci after irradiation
